Measurements as given in patent publication US20030044399A1, “Method of treatment” (SmithKline Beecham Corporation, priority 1998, published 2003).

Columns and labels:
Cruzain = Cruzain (Trypanosoma cruzi, UniProt P25779); experiment: Cysteine protease inhibition, progress curve method, cruzain; assay type: biochemical; details: 4 uM Ac-Lys-Glu-Lys-Leu-Arg-AMC, 100 mM Na acetate pH 5.5, 5 mM cysteine; read-out: Cruzain Ki
Procedure, shortened: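 Buffer was 100 mM sodium acetate pH 5.5 with 5 mM cysteine and 2% DMSO, at ambient temperature; reactions started with enzyme, and AMC formation was followed for 20–30 min. Substrates: Leishmania and Schistosoma, 10 uM Cbz-Phe-Arg-AMC; falcipain, 10 uM Cbz-Leu-Arg-AMC; cruzain, 4 uM Ac-Lys-Glu-Lys-Leu-Arg-AMC. Linear curves gave Ki,app; curved ones gave kobs/[I].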

Falcipain 2 = Falcipain 2 (Plasmodium falciparum, UniProt Q8I6U4); experiment: Cysteine protease inhibition, progress curve method, falcipain; assay type: biochemical; details: 10 uM Cbz-Leu-Arg-AMC, 100 mM Na acetate pH 5.5, 5 mM cysteine
Falcipain 2, sequence (Q8I6U4 244-484): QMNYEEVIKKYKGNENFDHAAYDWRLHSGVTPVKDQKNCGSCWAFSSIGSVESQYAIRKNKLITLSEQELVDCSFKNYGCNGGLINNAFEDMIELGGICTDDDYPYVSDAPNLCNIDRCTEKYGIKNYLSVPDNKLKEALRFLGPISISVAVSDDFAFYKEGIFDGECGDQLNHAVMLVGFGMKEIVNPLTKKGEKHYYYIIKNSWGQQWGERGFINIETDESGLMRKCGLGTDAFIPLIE
Description: Standard assay conditions for the determination of kinetic constants used 10 uM fluorogenic peptide substrate, Cbz-Phe-Arg-AMC for the cysteine proteases from Leishmania spp and Schistosoma Mansoni, Cbz-Leu-Arg-AMC for the cysteine proteases from Plasmodium falciparum and Trypanosoma brucei rhodesiensi, and Ac-Lys-Glu-Lys-Leu-Arg-AMC (4 uM final substrate concentration) for the cysteine protease from Trypoanosoma cruzi, and were determined in 100 mM Na acetate at pH 5.5 containing 5 mM cysteine. Stock substrate solutions were prepared at concentrations of […] in DMSO with 10 uM (4 uM for Ac-Lys-Glu-Lys-Leu-Arg-AMC) final substrate concentration in the assays. The final DMSO concentration was 2% and the final volume was 100 uL. All assays were conducted at ambient temperature. Product progress curves were generated over 20 to 30 minutes following formation of AMC product.
Potential inhibitors were evaluated using the progress curve method. Assays were carried out in the presence of variable concentrations of test compound. Reactions were initiated by addition of enzyme to buffered solutions of inhibitor and substrate. Data analysis was conducted according to one of two procedures depending on the appearance of the progress curves in the presence of inhibitors. For those compounds whose progress curves were linear, apparent inhibition constants (Ki,app) were calculated according to equation 1 (Brandt et al., Biochemitsry, 1989, 28, 140):
v=VmA/[Ka(1+I/Ki,app)+A] (1)
Where v is the velocity of the reaction with maximal velocity Vm, A is the concentration of substrate with Michaelis constant of Ka, and I is the concentration of inhibitor.
[AMC]=vsst+(v0−vss)[1−exp (−kobst)]/kobs (2)
Where [AMC] is the concentration of product formed over time t, v0 is the initial reaction velocity and vss is the final steady state rate. Values for kobs were then analyzed as a linear function of inhibitor concentration to generate an apparent second order rate constant (kobs/inhibitor concentration or kobs/[I]) describing the time-dependent inhibition. A complete discussion of this kinetic treatment has been fully described (Morrison et al., Adv. Enzymol. Relat. Areas Mol. Biol., 1988, 61, 201).
Exemplary inhibition data for the compounds used in the present method collected in accordance with the above-described procedure are listed in Table I.

Rhodazain = Rhodazain (Trypanosoma brucei rhodesiense, UniProt Q95PM0); experiment: Cysteine protease inhibition, progress curve method, rhodazain; assay type: biochemical, Trypanosoma brucei rhodesiensi; details: Rhodazain Ki (nM), 10 uM Cbz-Leu-Arg-AMC, 100 mM Na acetate pH 5.5, 5 mM cysteine
Rhodazain, sequence (Q95PM0 entry or part of it): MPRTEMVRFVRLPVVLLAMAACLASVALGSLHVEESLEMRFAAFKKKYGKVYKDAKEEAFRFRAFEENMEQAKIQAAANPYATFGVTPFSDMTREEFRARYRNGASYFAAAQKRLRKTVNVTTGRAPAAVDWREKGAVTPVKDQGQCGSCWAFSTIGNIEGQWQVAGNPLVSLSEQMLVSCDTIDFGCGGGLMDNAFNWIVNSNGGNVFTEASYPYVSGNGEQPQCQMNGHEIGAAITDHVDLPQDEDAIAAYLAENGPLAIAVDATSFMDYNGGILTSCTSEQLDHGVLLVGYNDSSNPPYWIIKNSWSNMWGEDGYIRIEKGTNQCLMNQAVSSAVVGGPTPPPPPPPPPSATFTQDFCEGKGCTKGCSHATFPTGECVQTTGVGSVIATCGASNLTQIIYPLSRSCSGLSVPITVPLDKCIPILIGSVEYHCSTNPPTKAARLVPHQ

Cruzain, sequence (P25779 123-337): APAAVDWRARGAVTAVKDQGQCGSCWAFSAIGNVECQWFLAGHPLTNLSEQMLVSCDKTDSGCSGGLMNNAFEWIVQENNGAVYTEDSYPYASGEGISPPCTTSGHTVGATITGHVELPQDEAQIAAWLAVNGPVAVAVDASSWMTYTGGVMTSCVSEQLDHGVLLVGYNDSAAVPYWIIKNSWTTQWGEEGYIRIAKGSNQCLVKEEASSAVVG

Row | SMILES | Ki (Cruzain) [nM] | Ki (Falcipain 2) [nM] | Ki (Rhodazain) [nM]
1 | CC(C)C[C@H](NC(=O)c1cc2ccccc2o1)C(=O)N[C@H]1CCCN(S(=O)(=O)c2cn(C)cn2)CC1=O [Example 42, Benzofuran-2-carboxylic acid {(S)-3-methyl-1-[1-(1-methyl-1H-imidazole-4-sulfonyl)-3-oxo-azepan-4-ylcarbamoyl]-butyl}amide] | 2 | 5.3 | 1.8
2 | COc1ccc2oc(C(=O)N[C@H](CC(C)C)C(=O)N[C@@H]3CCCN(S(=O)(=O)c4ncccc4C)CC3=O)cc2c1 (stereo in doubt) [Example 162, 5-Methoxy-benzofuran-2-carboxylic acid {(S)-3-methyl-1-[1-(3-methyl-pyridine-2-sulfonyl)-3-oxo-azepan-4-ylcarbamoyl]-butyl}amide] | 2.7 | 6.1 | 2.5
3 | CC(C)C[C@@H](NC(=O)c1ccc2[nH]ccc2c1)C(=O)N[C@@H]1CCCN(S(=O)(=O)c2cccc[n+]2[O-])CC1=O [Example 54, 1H-Indole-5-carboxylic acid {(S)-3-methyl-1-[3-oxo-1-(1-oxy-pyridine-2-sulfonyl)-azepan-4-ylcarbamoyl]-butyl}amide] | 5.2 | 7.8 | 4.1
4 | CC(C)CC(NC(=O)c1ccc2c(c1)OCCCO2)C(=O)N[C@@H]1CCCN(S(=O)(=O)c2cccc[n+]2[O-])CC1=O (single isomer, unassigned) [Example 78] | 4.4 | 7.1 | 4.6
5 | Cc1c(C(=O)N[C@@H](CC(C)C)C(=O)N[C@H]2C[C@H](C)CN(S(=O)(=O)c3ccccn3)CC2=O)oc2ccccc12 [Example 199, 3-Methyl-benzofuran-2-carboxylic acid {(S)-3-methyl-1-[6-methyl-3-oxo-1-(pyridine-2-sulfonyl)-azepan-4-ylcarbamoyl]-butyl}-amide] | 2.3 | 5.6 | 2
6 | CC(C)C[C@@H](NC(=O)c1cnc2ccccc2c1)C(=O)N[C@@H]1CCCN(S(=O)(=O)c2ccccn2)CC1=O (single isomer, unassigned) [Example 156] | 4.1 | 6.2 | 2.6
7 | COc1ccc2oc(C(=O)N[C@@H](CC(C)C)C(=O)N[C@H]3C[C@H](C)CN(S(=O)(=O)c4ccccn4)CC3=O)cc2c1 [Example 198, 5-Methoxy-benzofuran-2-carboxylic acid {(S)-3-methyl-1-[6-methyl-3-oxo-1-(pyridine-2-sulfonyll)-azepan-4-ylcarbamoyl]-butyl}-amide] | 1.9 | 3.6 | 1.6
8 | CC(C)C[C@@H](NC(=O)c1ccc2c(c1)OCO2)C(=O)N[C@@H]1CCCN(S(=O)(=O)c2ccccn2)CC1=O (stereo in doubt) [Example 59, Benzo[1,3]dioxole-5-carboxylic acid {(S)-3-methyl-1-[3-oxo-1-(pyridine-2-sulfonyl)-azepan-4-ylcarbamoyl]-butyl}amide] | 3.4 | 3.4 | 2.4
9 | CC(C)C[C@H](NC(=O)c1cccc2ncccc12)C(=O)N[C@H]1CCCN(S(=O)(=O)c2ccccn2)CC1=O [Example 185, Quinoline-5-carboxylic acid {(S)-3-methyl-1-[3-oxo-1-(pyridine-2-sulfonyl)-azepan-4-ylcarbamoyl]-butyl}-amide] | 1.8 | 4.4 | 2.1
10 | CC(C)CC(NC(=O)c1ccc2c(c1)OCO2)C(=O)N[C@@H]1CCCN(S(=O)(=O)c2cccc[n+]2[O-])CC1=O (single isomer, unassigned) [Example 76] | 14 | 7.8 | 5.4
11 | COc1cccc2cc(C(=O)N[C@@H](CC(C)C)C(=O)N[C@@H]3CCCN(S(=O)(=O)c4cccs4)CC3=O)oc12 [Example 144, 7-Methoxy-benzofuran-2-carboxylic acid-{(S)-3-methyl-1-[3-oxo-1-(thiophene-2-sulfonyl)-azepan-4-ylcarbamoyl]-butyl}-amide] | 5.5 | 6.2 | 8.6
12 | CC(C)CC(NC(=O)c1cc2ccccc2o1)C(=O)N[C@H]1CCCN(S(=O)(=O)c2nccn2C)CC1=O (stereo partly drawn) [Example 40] | 2.3 | 4.5 | 2
13 | CC(C)C[C@H](NC(=O)c1cc2ccccc2s1)C(=O)N[C@H]1C[C@H](C)CN(S(=O)(=O)c2ccccn2)CC1=O [Example 197, Benzo[b]thiophene-2-carboxylic acid {(S)-3-methyl-1-[6-methyl-3-oxo-1-(pyridine-2-sulfonyl)-azepan-4-ylcarbamoyl]-butyl}-amide] | 3.1 | 4.1 | 2.3
14 | CC(C)C[C@@H](NC(=O)c1ccc2ccccc2c1)C(=O)N[C@@H]1CCCN(S(=O)(=O)c2ccccn2)CC1=O (single isomer, unassigned) [Example 155] | 4.1 | 6.1 | 3
15 | Cc1csc(C(=O)NC(CC(C)C)C(=O)N[C@H]2CCCN(C(=O)Nc3ccccc3F)CC2=O)c1 (stereo partly drawn) [Example 220, 4-Methyl-2-carboxylic acid {(S)-1-[-(2-fluoro-phenylcarbamoyl)-3-oxo-azepan-4-ylcarbamoyl]-3-methyl-butyl}-amide] | 8.7 | 3.9 | 4.2
16 | COc1cc2cc(C(=O)N[C@H](CC(C)C)C(=O)N[C@H]3CCCN(S(=O)(=O)c4ccccn4)CC3=O)sc2cc1OC (single isomer, unassigned) [Example 165] | 5.5 | 2.5 | 2.1
17 | CC(C)C[C@H](NC(=O)c1cc2ccccc2s1)C(=O)N[C@H]1CCCN(S(=O)(=O)c2nccs2)CC1=O [Example 127, Benzo[b]thiophene-2-carboxylic acid {(S)-3-methyl-1-[3-oxo-1-(thiazole-2-sulfonyl)-azepan-4-ylcarbamoyl]-butyl}amide] | 2.8 | 8.1 | 4.7
18 | COc1ccc2oc(C(=O)N[C@H](CC(C)C)C(=O)N[C@@H]3CCCN(S(=O)(=O)c4ncccc4C)CC3=O)cc2c1 (single isomer, unassigned) [Example 171] | 2.5 | 4.9 | 3.2
19 | COc1cc2cc(C(=O)N[C@@H](CC(C)C)C(=O)NC3CCCN(S(=O)(=O)c4cn(C)cn4)CC3=O)oc2cc1OC (stereo partly drawn) [Example 39, 5,6-Dimethoxy-benzofuran-2-carboxylic acid {(S)-3-methyl-1-[3-oxo-1-(1-methyl-1H-imidazole-4-sulfonyl)-azepan-4-ylcarbamoyl]-butyl}amide] | 7.4 | 3.9 | 2.2
20 | COc1cccc2cc(C(=O)N[C@H](CC(C)C)C(=O)N[C@H]3CCCN(S(=O)(=O)c4ccccn4)CC3=O)oc12 [Example 164] | 4.2 | 2.2 | 5.1
21 | CC(C)C[C@@H](NC(=O)c1ccnc2ccccc12)C(=O)N[C@@H]1CCCN(S(=O)(=O)c2ccccn2)CC1=O (single isomer, unassigned) [Example 153] | 2.4 | 4.5 | 1.6
22 | CC(C)CC(NC(=O)c1nc(-c2ccccc2)oc1C(F)(F)F)C(=O)NC1CCCN(S(=O)(=O)c2ccccn2)CC1=O (single isomer, unassigned) [Example 105] | 13 | 84 | 5.3
23 | CC(C)C[C@H](NC(=O)c1cc2sccc2s1)C(=O)N[C@H]1CCCN(C(=O)Nc2ccccc2F)CC1=O [Example 218, Thieno[3,2-b]thiophene-2-carboxylic acid {(S)-1-[1-(2-fluoro-phenylcarbamoyl)-3-oxo-azepan-4-ylcarbamoyl]-3-methyl-butyl}-amide] | 5.4 | 3.1 | 2.3
24 | COc1ccc2oc(C(=O)N[C@@H](CC(C)C)C(=O)N[C@H]3CCCN(C(=O)Nc4ccccc4F)CC3=O)cc2c1 [Example 221, 5-Methoxy-benzofuran-2-carboxylic acid {(S)-1-[1-(2-fluoro-phenylcarbamoyl)-3-oxo-azepan-4-ylcarbamoyl]-3-methyl-butyl}-amide] | 3 | 2 | 1.2
